Measurements as given in patent publication US20120283212A1, “USE OF POLYSACCHARIDES FOR TREATING STRESS AND ANXIETY” (ROQUETTE FRERES, priority 2009, published 2012).

How the values were obtained:
[1] = tested on: male Wistar rat; assay: Conditioned Defensive Burying (CDB) test; format: in vivo; conditions: the greater the stress, the higher the score
Experimental: The anti-stress effects of a PS1 polysaccharide, administered orally for 14 days, were evaluated in the male Wistar rat in the Conditioned Defensive Burying (CDB) test.
For this, the PS1 is administered by esophageal gavage daily at the doses of 0.7, 1.4 and 2.8 g/kg of body weight for 14 days (8 rats per group). Similarly, a vehicle control represented by spring water is administered under the same conditions. The reference positive control is diazepam: from D0 to D13, methylcellulose is administered to the rats, and on D14, diazepam at 1 mg/kg or 3 mg/kg of body weight is administered to the rats. The PS1 and diazepam mixture is also studied: the PS1 is administered for 14 days alone, and on D14, diazepam at 1 mg/kg is added to the esophageal gavage of the PS1.
On D14, the rats are subjected to the Conditioned Defensive Burying (CDB) test. For this, an electric probe is inserted into a cage before the start of the test. Each rat is placed in the experimental device on the opposite side to the probe and a single electric shock, of weak intensity (2 mA), is delivered to the animal at the moment it places its front paw on the probe for the first time. Following the shock, the behavior of the rat is recorded for five minutes; an overall stress score is attributed for each rat. The greater the stress, the higher the score.

[2] = tested on: male Wistar rat; assay: Functional observational battery (FOB); format: in vivo; conditions: diazepam 3 mg/kg on D14; for Spontaneous activity on D14 (score): score 0=excited, 1 to 3 moderate rapid movements, 4 no activity; for Finger approach reaction on D14 (score): score 0=none, 1 to 3=slight to strong escape; for Respiratory rate on D14 (score): score 0=slow, 1=normal, 2 rapid
Experimental: The effects of an oligosaccharide administered orally at doses of 0.7 and 1.4 g/kg for 14 days were evaluated in a functional observational battery (FOB) in the male Wistar rat. The objective of this FOB test is to evaluate the change in behavioral, neurological and physiological parameters of the rats according to the products tested.
For this, a polysaccharide (PS1) as defined in table 1 is administered by esophageal gavage daily at these two doses for 14 days (6 rats per group). Similarly, a vehicle control consisting of spring water is administered under these conditions. The reference positive control is diazepam: from D0 to D13, methylcellulose is administered to the rats and on D14, diazepam at 3 mg/kg of body weight is also administered.
The animals are subjected to the functional observational battery before treatment on D0 and at the end of the study on D14.
Each test comprises three observational phases: • a direct observational phase during which the animal is not disturbed, • an active observational phase during which the animal is handled, • a phase devoted to evaluating the reactions of the animals to reactivity tests.
Several variables are recorded: • Behavioral effects: spontaneous locomotor activity, locomotor behavior disorders, emotionality (vocalization frequency), touch escape reaction, irritability, provoked aggressiveness and freezing behaviors, sleeping/awakening, urination and defecation, sensorimotor responses (visual placing, toe pinch and sound stimulus reaction). • Neurological effects: pupillary response, palpebral reflex, pelvic elevation, tail position, limb and abdominal muscle tone, righting test, grip strength test, suspension test, tremors and piloerection. • Physiological effects: salivation, lacrimation, diarrhea, rectal temperature, heart and respiratory rate.
Definition of the scores: • Spontaneous activity: 0=excited; 1 to 3 moderate rapid movements; 4: no activity. • Finger approach reaction: 0=none; 1 to 3=slight to strong escape. • Respiratory rate: 0=slow; 1=normal; 2 rapid. • Sound stimulus startle reaction: 0=slight; 1=<1 cm; 2=>1 cm.

## CN1C(=O)CN=C(c2ccccc2)c2cc(Cl)ccc21 [Diazepam, diazepam]
[1]; diazepam 1 mg/kg on D14
  Overall stress score (Mean ± SEM): 92.57 ± 17.99
[1]; diazepam 3 mg/kg on D14
  Overall stress score (Mean ± SEM): 65.25 ± 7.15
[1]; diazepam 3 mg/kg on D14, listed as diazepam
  Overall stress score (Mean ± SEM): significantly lower than that of the vehicle group
[2]
  Heart rate on D14, in comparison with the vehicle: significantly slower
  Spontaneous activity on D14 (score): 2.16
  Finger approach reaction on D14 (score): 0.18
  Respiratory rate on D14 (score): 1.14
[2]; listed as reference
  Spontaneous activity on D14 (score): tend to be significantly less active
  Finger approach reaction on D14 (score): significantly less reactive to a finger approach
  Respiratory rate on D14 (score): significantly slower
[2]; score 0=slight, 1=<1 cm, 2=>1 cm
  Sound stimulus startle reaction on D14 (score): 0.00
